We go through one compound from PMC7559477, “Zinc Binding by Histatin 5 Promotes Fungicidal Membrane Disruption in C. albicans and C. glabrata” (Journal of Fungi, 2020).

SMILES strings stand for the structures.

This assay concerns Candida glabrata strain Cg931010. The format is cell-based. The settings on record: strain Cg931010, 18 h. As to the method: Experiments were carried out with Candida albicans strain SC5314 [41] or Candida glabrata strain Cg931010 [42]. Liquid and solid pre-mixed yeast-peptone-dextrose media was used to grow yeast cells (YPD and YPD-Agar, respectively) (Fisher Scientific, Waltham, MA, USA). All media was prepared in deionized water with 50 µg/ mL supplemented uridine (Sigma Aldrich, St. Louis, MO, USA), and sterilized by autoclave. Metal salt solutions of ZnSO4·7H2O (Fisher Scientific, Waltham, MA, USA) were made in High-performance liquid chromatography (HPLC)-grade water (JT Baker, Phillipsburg, NJ, USA) and used within one day of preparation. […]
Cells (C. albicans or C. glabrata) were cultured as previously described. […] Significance of differences in killing between Zn^2+ and Zn^2+-free samples were calculated using one-way ANOVA with Sidak’s multiple comparisons test.
Figure 6 Zinc greatly increases Hst 5 and P113 killing of C. glabrata, and induces almost immediate ATP efflux. […] Cells were removed from samples via centrifugation and aliquots of supernatant were taken at 1 and 10 min time points to measure extracellular ATP by luminescence. […] Significance of differences in killing and ATP efflux were calculated using one way ANOVA with Sidak’s multiple comparison test. * indicates p ≤ 0.05, **** indicates p ≤ 0.0001

On to `C[C@H](NC(=O)[C@H](Cc1c[nH]cn1)NC(=O)[C@H](CO)NC(=O)[C@@H](N)CC(=O)O)C(=O)N[C@@H](CCCCN)C(=O)N[C@@H](CCCNC(=N)N)C(=O)N[C@@H](Cc1c[nH]cn1)C(=O)N[C@@H](Cc1c[nH]cn1)C(=O)NCC(=O)N[C@@H](Cc1ccc(O)cc1)C(=O)N[C@@H](CCCCN)C(=O)N[C@@H](CCCNC(=N)N)C(=O)N[C@@H](CCCCN)C(=O)N[C@@H](Cc1ccccc1)C(=O)N[C@@H](Cc1c[nH]cn1)C(=O)N[C@@H](CCC(=O)O)C(=O)N[C@@H](CCCCN)C(=O)N[C@@H](Cc1c[nH]cn1)C(=O)N[C@@H](Cc1c[nH]cn1)C(=O)N[C@@H](CO)C(=O)N[C@@H](Cc1c[nH]cn1)C(=O)N[C@@H](CCCNC(=N)N)C(=O)NCC(=O)N[C@@H](Cc1ccc(O)cc1)C(=O)O` [Hst 5, Histatin 5], for which the “killing less than in C. albicans under the same conditions” value is reported as 40%.
